The supplement of paper PMC13380429

What was measured:
Conditions in all cases: 72 h
Calu-3 [1] = test: cell viability relative to DMSO; higher = less toxic
U2OS [2] = test: as above
Caco-2 [3] = test: as above
Vero E6 [4] = test: as above
HepG2 [5] = test: as above
Calu-3 [6] = test: relative viability EC50 (midpoint between 100% and the lowest measured viability); higher = less toxic
U2OS [7] = test: as above
Vero E6 [8] = test: as above
Calu-3 [9] = test: drug sensitivity score (DSS) for viability; higher = more toxic; extreme values may be limits of the assay
U2OS [10] = test: as above
Caco-2 [11] = test: as above
Vero E6 [12] = test: as above
HepG2 [13] = test: as above
HepG2 [14] = test: relative viability EC50 (midpoint between 100% and the lowest measured viability); higher = less toxic

SMILES	cell viability (Calu-3 [1]; 1 nM) [%]	cell viability (Calu-3 [1]; 10 nM) [%]	cell viability (Calu-3 [1]; 100 nM) [%]	cell viability (Calu-3 [1]; 1000 nM) [%]	cell viability (Calu-3 [1]; 10000 nM) [%]	cell viability (U2OS [2]; 1 nM) [%]	cell viability (U2OS [2]; 10 nM) [%]	cell viability (U2OS [2]; 100 nM) [%]	cell viability (U2OS [2]; 1000 nM) [%]	cell viability (U2OS [2]; 10000 nM) [%]	cell viability (Caco-2 [3]; 1 nM) [%]	cell viability (Caco-2 [3]; 10 nM) [%]	cell viability (Caco-2 [3]; 100 nM) [%]	cell viability (Caco-2 [3]; 1000 nM) [%]	cell viability (Caco-2 [3]; 10000 nM) [%]	cell viability (Vero E6 [4]; 1 nM) [%]	cell viability (Vero E6 [4]; 10 nM) [%]	cell viability (Vero E6 [4]; 100 nM) [%]	cell viability (Vero E6 [4]; 1000 nM) [%]	cell viability (Vero E6 [4]; 10000 nM) [%]	cell viability (HepG2 [5]; 1 nM) [%]	cell viability (HepG2 [5]; 10 nM) [%]	cell viability (HepG2 [5]; 100 nM) [%]	cell viability (HepG2 [5]; 1000 nM) [%]	cell viability (HepG2 [5]; 10000 nM) [%]	relative viability EC50 (Calu-3 [6]) [µM]	relative viability EC50 (U2OS [7]) [µM]	relative viability EC50 (Vero E6 [8]) [µM]	drug sensitivity score (Calu-3 [9])	drug sensitivity score (U2OS [10])	drug sensitivity score (Caco-2 [11])	drug sensitivity score (Vero E6 [12])	drug sensitivity score (HepG2 [13])	relative viability EC50 (HepG2 [14]) [µM]
CC[C@H](CO)Nc1nc(Nc2cccc(-c3ccccn3)c2)c2ncn(C(C)C)c2n1 [DRF053-(R)]	94.7	94.9	90.7	104	80.3	102	101	94.7	99.6	94.4	99.6	86.9	91.2	93.2	67.4	92	92.3	92.7	89.8	81.7	98.8	108	107	94.5	66.2	> 10	> 10	> 10	0.4	0	2.4	1	2.5	–
Cc1c(NC(=O)OC[C@@H]2COCCN2)cn2ncnc(Nc3ccc4c(cnn4Cc4cccc(F)c4)c3)c12	97.2	96.4	92.4	64.5	26.4	96.6	101	99.4	96.3	79.3	102	101	85.1	88.2	69.3	98.5	103	91.7	84.1	60.7	89.8	104	96	99.1	82.2	0.988	> 10	–	8.2	1.1	3	3.5	0.5	> 10
NC(=O)[C@H]1CCS[C@@H]2C[C@]3(CCCN3C(=O)Cc3ccc(NC(=O)COc4ccc(Cl)cc4Cl)cc3)C(=O)N12 [ST-2825]	106	96.9	96.1	99.8	91.7	96.4	104	97.6	103	55.6	84.7	90.3	91.9	92.9	56	101	92.2	94.8	88.1	86.6	96.5	101	103	91.7	40.5	> 10	–	> 10	0	2	3.5	0.5	4.6	2.05
Cn1ncc(Cl)c1-c1cc(C(=O)N[C@H](CN)Cc2ccc(F)c(F)c2)oc1Cl [uprosertib]	104	107	78.4	80.5	49.9	95.1	99.8	94.5	96.5	76.3	98.7	99.3	86.2	71.5	53.9	106	102	102	94.9	83.6	101	97.4	101	85.2	68.4	0.693	> 10	> 10	5.8	1.4	6.5	0.8	3.3	–
COc1ccc(F)c(F)c1C(=O)c1cnc(NC2CCN(S(C)(=O)=O)CC2)nc1N [R547]	–	–	–	–	–	–	–	–	–	–	–	–	–	–	–	–	–	–	–	–	–	–	–	–	–	–	–	–	9	10.3	–	10.7	16.1	–
CO[C@@H]1[C@H](N(C)C(=O)c2ccccc2)C[C@H]2O[C@]1(C)n1c3ccccc3c3c4c(c5c6ccccc6n2c5c31)C(=O)NC4 [midostaurin]	89.5	88.5	102	67.3	43.3	102	99.2	103	59.6	29	108	111	97.4	74.9	63.3	110	101	94.3	63.9	36	97	94	93.9	53.9	44.3	0.885	0.897	0.793	7.1	8.8	4.7	7.8	9.3	0.369
C[C@]12CC[C@@H]3c4ccc(O)cc4CC[C@H]3[C@@H]1CCC2=O [estrone]	–	–	–	–	–	–	–	–	–	–	–	–	–	–	–	–	–	–	–	–	–	–	–	–	–	–	–	–	0	0	–	0	0	–
O=C(/C=C/c1ccc(O)c(O)c1)OCCc1ccccc1 [caffeic-acid-phenethyl-ester]	95.4	97.4	99.1	94.4	90.3	98.4	102	98.9	99.2	69.9	92	99.6	101	88.2	66.9	96.9	101	96.4	96.4	90.6	92	106	99.6	90.2	73.9	> 10	–	> 10	0	1.4	3.2	0	2.3	–
COC(=O)c1ccc(O)cc1 [methylparaben]	–	–	–	–	–	–	–	–	–	–	–	–	–	–	–	–	–	–	–	–	–	–	–	–	–	–	–	–	0	0	–	0	0	–
CC[C@H]1[C@@H](O)[C@@H]2[C@H](CC[C@]3(C)[C@@H]([C@H](C)CCOS(=O)(=O)O)CC[C@@H]23)[C@@]2(C)CC[C@@H](O)C[C@@H]12 [INT-767]	110	107	108	105	99.5	102	98.1	102	101	101	–	–	–	–	–	–	–	–	–	–	115	118	96.2	99.4	111	> 10	> 10	–	0	0	–	–	0	> 10
CCn1c(=O)c(-c2ccc(Cl)cc2Cl)cc2cnc(Nc3ccc(N4CCNCC4)c(F)c3)nc21 [FRAX486]	104	100	105	91.9	97.9	103	99.8	101	91.6	43	94.9	92.4	97.7	80	63.4	97	102	99.6	90.9	31.7	96.6	97.8	93.1	99.3	51.6	> 10	2.01	2.09	0	4.5	3.9	5.3	2.6	–
Cc1ccc(C(C)C)c(O)c1 [thymol]	–	–	–	–	–	–	–	–	–	–	–	–	–	–	–	–	–	–	–	–	–	–	–	–	–	–	–	–	0	0	–	0	0	–
OCCNCCCOc1cccc(Cl)c1Cl [2,3-DCPE]	99.1	98.6	98.1	97.5	107	105	101	100	101	18.1	93.9	105	106	98.7	69.4	92.5	96.1	103	97.9	15.5	103	96.1	89.7	97.6	13.3	> 10	3.21	2.99	0	4.5	1.5	5	5.1	2.96
CC(O)(CS(=O)(=O)c1ccc(F)cc1)C(=O)Nc1ccc(C#N)c(C(F)(F)F)c1 (centres undefined) [bicalutamide]	–	–	–	–	–	–	–	–	–	–	–	–	–	–	–	–	–	–	–	–	–	–	–	–	–	–	–	–	0	0	–	0	0	–
Cc1cccc(OCC(O)CNC(C)(C)C)c1C (centres undefined) [xibenolol]	106	92.9	95.6	101	103	102	97.4	99.2	94.6	110	74.6	95.8	80.1	94.3	100	104	99.3	100	107	95.4	–	–	–	–	–	> 10	> 10	> 10	0	0	0.7	0	–	–
Cc1cc([N+](=O)[O-])ccc1NS(=O)(=O)c1cc(Cl)ccc1Cl [FH-535]	104	92.4	105	101	93.2	101	97.6	93.3	96.9	89.5	107	103	110	87.2	60.3	98.3	102	94.1	92.8	79.2	100	106	94.5	96.7	50.1	> 10	> 10	> 10	0	0	3.8	0.9	3.1	–
N=C(N)NS(=O)(=O)c1ccc(N)cc1 [sulfaguanidine]	–	–	–	–	–	–	–	–	–	–	–	–	–	–	–	–	–	–	–	–	–	–	–	–	–	–	–	–	0	0	–	0	0	–
O=C(CCCc1ccc(-c2ccccc2F)cc1)Nc1ccc(O)cc1 [CMPD-1]	94.2	105	99	88.8	86.3	94.9	99.4	94.2	74.8	36.6	95.6	92.4	97.5	112	71.9	97.2	95.3	99.6	97.6	95.5	99	97.8	107	99.2	42.6	> 10	1.27	> 10	0.8	6.3	0.8	0	3.2	3.08
